The values that follow come from ChEMBL document CHEMBL1201862, “PubChem BioAssay data set” (2004).

Among the test systems are NCI-H226; SK-MEL-5; IGROV-1; TK-10; OVCAR-3; OVCAR-5; HCT-15; RPMI-8226; DMS-114; SK-MEL-2; SW-620; UACC-62; SNB-19; HL-60; COLO 205; T47D; PC-3; Hs-578T; NCI/ADR-RES; DU-145.
Common to all, as to experiment: inhibition of tumour cell growth, NCI panel, 48 h

Each structure is given as a SMILES string.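 Assay format: 96-well plates, 48-hour exposure. GI50 = concentration required for 50% inhibition of growth.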 Activity calls are given as the source filed them. Cut-off read from the data, not from the text of the source: active = GI50 up to about 1.1 µM and inactive = higher.

`COc1ccc2c(c1)[n+]([O-])c(C(=O)CC(=O)C(=O)Nc1cccc(C)c1C)c(C)[n+]2[O-]`: the GI50 in the assay on NCI-H226, in the assay with SK-MEL-5, in the assay with IGROV-1, in the assay with TK-10, in the assay with OVCAR-3 and in the assay on OVCAR-5 was > 100 µM (inactive) in each case. The GI50 is more than 100 µM with HCT-15; > 100 µM (inactive) in the assay with RPMI-8226; > 100 µM (inactive) in the assay on DMS-114; > 100 µM (inactive) in the assay on SK-MEL-2; > 100 µM (inactive) in the assay with SW-620; > 100 µM (inactive) in the assay with UACC-62. The GI50 with SNB-19 and with HL-60 was > 100 µM (inactive) throughout.

For the compound `Cc1ccc(N2C(=O)/C(=C3\Sc4c(nc(C)n(C)c4=O)N3c3ccccc3)SC2=S)cc1`, the GI50 with NCI-H226 was 26 µM (inactive); in the assay on SK-MEL-5, 83.8 µM (inactive); with IGROV-1, 48 µM (inactive); in the assay on TK-10 it was 32.8 µM (inactive); with OVCAR-5 it was > 100 µM (inactive); with COLO 205, > 100 µM (inactive). In addition, the GI50 in the assay on HCT-15 was more than 100 µM; in the assay with RPMI-8226, > 100 µM (inactive); in the assay with DMS-114, 35.6 µM (inactive); with SK-MEL-2 it was > 100 µM (inactive); with SW-620, > 100 µM (inactive); in the assay with UACC-62, 45.7 µM (inactive). Further, the figures for the GI50 with SNB-19 and in the assay with HL-60 were 49.4 µM (inactive) and > 100 µM (inactive), respectively.

As to `O=C1CC(=O)c2c(N3CCCC3)sc(N3CCCC3)c21`, the GI50 in the assay with T47D, with NCI-H226, with SK-MEL-5, in the assay with PC-3, in the assay on IGROV-1 and with TK-10 was > 100 µM (inactive) throughout. In addition, the GI50 is > 100 µM (inactive) in the assay on OVCAR-3; > 100 µM (inactive) in the assay on OVCAR-5; > 100 µM (inactive) in the assay on COLO 205; more than 100 µM in the assay with HCT-15; > 100 µM (inactive) with Hs-578T; > 100 µM (inactive) in the assay with RPMI-8226. In addition, the GI50 in the assay on SK-MEL-2, in the assay on SW-620, in the assay with NCI/ADR-RES, in the assay with UACC-62, with DU-145 and with SNB-19 was > 100 µM (inactive) each time. The GI50 in the assay on HL-60 was > 100 µM (inactive).

In the case of `O=C1OC(Cc2ccccc2)(N2CCCC2=O)C1c1ccccc1` (centres undefined), the GI50 in the assay on NCI-H226 is > 100 µM (inactive); with SK-MEL-5 it was 51.5 µM (inactive); with TK-10, > 100 µM (inactive); in the assay on OVCAR-3, > 100 µM (inactive); in the assay with OVCAR-5, > 100 µM (inactive); in the assay with COLO 205, > 100 µM (inactive). Also, the GI50 with RPMI-8226 is 59.4 µM (inactive); in the assay on DMS-114, 23.7 µM (inactive); in the assay on SK-MEL-2, > 100 µM (inactive); in the assay with SW-620, 65.5 µM (inactive); in the assay on UACC-62, 60 µM (inactive); in the assay on SNB-19, 47.2 µM (inactive). Besides, the GI50 in the assay with HL-60 was 43 µM (inactive).

Consider `O=C(Oc1c(Br)cc(Br)cc1C(=O)Oc1ccccc1)C(=O)Oc1c(Br)cc(Br)cc1C(=O)Oc1ccccc1`, for which the GI50 is 27.1 µM (inactive) in the assay on T47D; 16 µM (inactive) in the assay on NCI-H226; 17.3 µM (inactive) with SK-MEL-5; 20.2 µM (inactive) in the assay on PC-3; 26.7 µM (inactive) in the assay on IGROV-1; 49.2 µM (inactive) in the assay on TK-10. In addition, the GI50 in the assay on OVCAR-3 is 24.3 µM (inactive); in the assay with OVCAR-5 it was 24.4 µM (inactive); with COLO 205, 21.6 µM (inactive); in the assay on HCT-15, 20.7 µM; with Hs-578T, 34.8 µM (inactive); with RPMI-8226, 15.5 µM (inactive). In addition, the GI50 in the assay on SK-MEL-2 is 26.7 µM (inactive); in the assay on SW-620 it was 19.8 µM (inactive); with NCI/ADR-RES, 38.9 µM (inactive); in the assay with UACC-62 it was 24.8 µM (inactive); in the assay on DU-145, 37.5 µM (inactive); in the assay on SNB-19, 20 µM (inactive). In addition, in the assay with HL-60, the GI50 is < 0.01 µM (active).

Take `COc1ccc2c3c1O[C@H]1C(O)CCC4(O)[C@@H](C2)NCC[C@]314` (some centres undefined): the GI50 in the assay with T47D, in the assay with NCI-H226, in the assay with SK-MEL-5, in the assay with PC-3, with IGROV-1 and in the assay with TK-10 was > 100 µM (inactive) in each case. For the same compound, the GI50 with OVCAR-3 was > 100 µM (inactive); in the assay on OVCAR-5, > 100 µM (inactive); in the assay on COLO 205 it was > 100 µM (inactive); in the assay on HCT-15, more than 100 µM; in the assay on Hs-578T it was > 100 µM (inactive); in the assay on RPMI-8226, > 100 µM (inactive). Also, the GI50 in the assay on SK-MEL-2, with SW-620, in the assay with NCI/ADR-RES, in the assay on UACC-62, in the assay with DU-145 and in the assay with SNB-19 was > 100 µM (inactive) each time. Moreover, in the assay on HL-60, the GI50 is > 100 µM (inactive).

Consider `CC(=O)OCc1c2ccccc2c(C)c2c1cc(F)c1ccccc12`, for which the GI50 with NCI-H226 is 25.9 µM (inactive); in the assay on SK-MEL-5, 25.5 µM (inactive); in the assay on IGROV-1 it was 22.5 µM (inactive); in the assay with TK-10 it was > 100 µM (inactive); in the assay on OVCAR-3 it was 22.9 µM (inactive); in the assay with OVCAR-5 it was 42.7 µM (inactive). The GI50 with COLO 205 is 16.2 µM (inactive); with DMS-114 it was 31.5 µM (inactive); in the assay with SK-MEL-2 it was 15.2 µM (inactive); with SW-620 it was 20.5 µM (inactive); in the assay with UACC-62, 20.7 µM (inactive); in the assay with SNB-19, 28.9 µM (inactive). In addition, the GI50 in the assay with HL-60 was 23 µM (inactive).

Turning to `Cn1nc(-c2ccccc2)c(C(=O)/C=C/c2ccc(F)cc2)c(N2CCOCC2)c1=O`, the GI50 in the assay on SK-MEL-5 is 14.8 µM (inactive); with IGROV-1, 20.3 µM (inactive); in the assay with TK-10, 28.6 µM (inactive); in the assay with COLO 205, 18.2 µM (inactive); in the assay on HCT-15 it was 23.6 µM; in the assay with RPMI-8226, 4.57 µM (inactive). Moreover, the GI50 in the assay with DMS-114 is 15.9 µM (inactive); in the assay on SW-620, 21.3 µM (inactive); in the assay on UACC-62, 18.1 µM (inactive); in the assay on SNB-19 it was 13.7 µM (inactive); in the assay with HL-60, 14.6 µM (inactive).

Consider `Cc1ccc(S(=O)OC23CC4CC(CC(C4)C2)C3)cc1` (centres undefined), for which the GI50 in the assay on NCI-H226 is > 100 µM (inactive); in the assay with SK-MEL-5 it was > 100 µM (inactive); in the assay with IGROV-1, 29.4 µM (inactive); in the assay on TK-10 it was > 100 µM (inactive); in the assay on OVCAR-3 it was > 100 µM (inactive); in the assay on OVCAR-5, > 100 µM (inactive). In addition, the GI50 with COLO 205 was > 100 µM (inactive); with HCT-15 it was more than 100 µM; in the assay with RPMI-8226 it was 41.4 µM (inactive); in the assay with DMS-114, 78.5 µM (inactive); with SW-620, 84.1 µM (inactive); with UACC-62, > 100 µM (inactive). Besides, the GI50 was > 100 µM (inactive) in the assay on SNB-19 and 19.4 µM (inactive) with HL-60.

For `CCN(CC)CCn1ncc2c3c(=O)c4cccnc4n(CCN(CC)CC)c3ccc21`, the GI50 with T47D, with NCI-H226, with SK-MEL-5, with PC-3, in the assay on IGROV-1 and in the assay on TK-10 was > 10 µM (inactive) in each case. Further, the GI50 is 8.11 µM (inactive) with OVCAR-3; 9.12 µM (inactive) with OVCAR-5; 2.32 µM (inactive) with COLO 205; 5.25 µM with HCT-15; 8.67 µM (inactive) with Hs-578T; > 10 µM (inactive) in the assay with RPMI-8226. For the same compound, the GI50 is > 10 µM (inactive) with SK-MEL-2; 3.77 µM (inactive) with SW-620; 9.18 µM (inactive) in the assay on NCI/ADR-RES; > 10 µM (inactive) in the assay on UACC-62; > 10 µM (inactive) with DU-145; > 10 µM (inactive) in the assay with SNB-19. For the same compound, in the assay with HL-60, the GI50 was 8.2 µM (inactive).

As for `COc1ccc(C2=C(Cl)c3cc(OC)c(OC)cc3C2)cc1OC`, the GI50 in the assay with NCI-H226 was > 100 µM (inactive); in the assay with SK-MEL-5, > 100 µM (inactive); in the assay with IGROV-1 it was > 100 µM (inactive); in the assay on COLO 205 it was > 100 µM (inactive); with HCT-15 it was more than 100 µM; in the assay on RPMI-8226, > 100 µM (inactive). For the same compound, the GI50 in the assay on DMS-114, with SW-620, in the assay with UACC-62, with SNB-19 and in the assay with HL-60 was > 100 µM (inactive) throughout.

With `Nc1nc(Cl)c(N)c(NCC2(CO)CCC(CCc3ccccc3)C2)n1` (centres undefined), the GI50 was 1.56 µM (inactive) in the assay on T47D; 18.2 µM (inactive) with NCI-H226; 0.033 µM (active) in the assay with SK-MEL-5; 17.3 µM (inactive) with PC-3; 22.8 µM (inactive) in the assay on IGROV-1; 21.3 µM (inactive) in the assay with TK-10. The GI50 with OVCAR-3 is 18.7 µM (inactive); in the assay on OVCAR-5, 20.9 µM (inactive); in the assay on COLO 205, 9.93 µM (inactive); in the assay with HCT-15, 16.1 µM; with Hs-578T, 21.1 µM (inactive); in the assay with RPMI-8226 it was 14.3 µM (inactive). The GI50 in the assay with SK-MEL-2 is 15.7 µM (inactive); with SW-620 it was 2.08 µM (inactive); in the assay with NCI/ADR-RES, > 39.5 µM (inactive); in the assay on UACC-62, 12.1 µM (inactive); in the assay on DU-145, 21.4 µM (inactive); in the assay on SNB-19, 25.7 µM (inactive). Besides, in the assay with HL-60, the GI50 was 3.37 µM (inactive).

With `CC(C(=O)c1ccncc1)c1ccccn1` (centres undefined), the GI50 with T47D, in the assay with NCI-H226, in the assay on SK-MEL-5, with PC-3, in the assay with IGROV-1 and in the assay with TK-10 was > 100 µM (inactive) in each case. The GI50 was > 100 µM (inactive) in the assay on OVCAR-3; > 100 µM (inactive) in the assay with OVCAR-5; > 100 µM (inactive) in the assay on COLO 205; more than 100 µM with HCT-15; > 100 µM (inactive) in the assay on Hs-578T; > 100 µM (inactive) with RPMI-8226. The GI50 in the assay on SK-MEL-2, in the assay on SW-620, in the assay on NCI/ADR-RES, in the assay on UACC-62, in the assay with DU-145 and in the assay on SNB-19 was > 100 µM (inactive) each time. Further, in the assay on HL-60, the GI50 is > 100 µM (inactive).
